# Peptide text beside a SMILES is read from it.
# Columns and labels:
# [1] = system: 4T1 cells; test: Lung metastasis of 4T1 cells in Balb/c mice; assay type: in vivo, mouse
# Method: 4T1 cells were treated for 14 days with water, Tat-Scr (2.5 μM) or Tat-SID (1 & 2.5 μM) and then inoculated orthotopically in the inguinal mammary gland of Balb/c mice (n = 5). […] Tumor volumes were calculated as ellipsoids (Dxd^2/2) by measuring the main diameter (D) and the smaller diameter (d) and plotted versus time (days). The experiment was stopped when tumors in the control group reached ∼500 mm^3, then, the mice were sacrificed, tumors were isolated for weight and lungs were isolated for metastatic foci analysis. Similar experiment was also performed using MMTV-Myc cells. In another set of experiments 4T1 cells stably transfected with Scr-shRNA or PF1-shRNA were inoculated in interscapular space of Balb/c mice (n = 10). […] Tumor-free survival was calculated from Kaplan-Meier curves, and statistical significance was determined using the log-rank test for survival and the t-test for tumor growth. Metastatic dissemination was evaluated by dissecting the lungs from sacrificed mice and inspecting the Bouin-fixed (Sigma) lung surface for lesions using a stereoscope (Nikon SMZ800 stereoscope X3 to X5). […] After 6 days, the number of colonies formed (each originating from a single tumor cell) were counted to evaluate the number of disseminated tumor cells (DTCs). To evaluate DTC proliferation, the number of cells per colony were counted using ImageJ software.
# [2] = system: MDA-MB-231 cells; test: 3D culture colony morphogenesis of MDA-MB-231; assay type: cell-based, human; settings: 3D matrigel, 10 days
# Method: MDA-MB-231 cells were cultured on 8 chambered wells (BD Biosciences) and fixed with 4% paraformaldehyde/PBS for 15 min at room temperature. For 3D cultures cells were seeded (3 × 10^3/well) in quadruplicate onto Matrigel (BD Biosciences) or Cultrex basement membrane extracts (Trevigen) in 8-well culture slides to prepare three-dimensional cultures as described earlier. […] Colony morphology was determined by phase-contrast microscopy. For immunostaining, cells were permeabilized with 0.5% Triton X-100/PBS and blocked with 10% normal goat serum (Invitrogen) in PBS for 1 h. Primary antibodies were incubated overnight at 4°C in blocking buffer and washed 3 times with washing buffer (0.05% Triton X-100/PBS) and once with PBS. Secondary antibodies (dilution 1:200 in 1% normal goat serum/PBS) were added for 1 h and then washed. The samples were then mounted with ProLong Gold antifade reagent with DAPI (Molecular Probes/Invitrogen, CA), following the manufacturer instructions. All incubations and washes were done at 4 or 25°C as required. Confocal microscopy was performed using a Leica SP5 confocal microscope at the Shared Instrumentation facility of department of Hematology at Mount Sinai School of Medicine, NY.
# [3] = system: MDA-MB-231 cells; test: FACS CD44/CD24 in MDA-MB-231; assay type: cell-based, human; settings: 1 μM, 72 h; mean of three independent experiments; p = 0.01
# Method: (§1) For aldehyde dehydrogenase assay, cells were dissociated with PBS-EDTA and tested for ALDH activity (2 × 10^5 cells/sample), using the Aldefluor assay (Aldegen) according to the manufacturer's instructions. For CD44 and CD24 antigens, cells were dissociated with Accutase, washed with PBS and incubated with PE-conjugated anti-CD24 and APC-conjugated anti-CD44 antibodies (BD Biosciences) for 40 minutes in ice. For quantification of NANOG, OCT4 and SOX2 dissociated cells were fixed with 1% paraformaldehyde (15 min at RT), permeabilized with 0.5% TritonX100 (10 min at RT) and incubated with 1:100 diluted antibodies against NANOG, OCT4 and SOX2 (Cell Signaling) for 1 h at room temperature. The cells were then washed and incubated with fluorophore-conjugated secondary antibodies Abcam). FACS analysis was carried out using a FACScanto flow cytometer, DIVA software program for acquisition (BD Biosciences) and FlowJo (Treestar.) software for analysis.
# [4] = system: MDA-MB-231 cells; test: Aldefluor ALDH1 activity in MDA-MB-231; assay type: cell-based, human; settings: 1 μM, 72 h; mean of three independent experiments; p = 0.0395
# Method: as §1
# [5] = system: H3K4me3 at the CDH1 and ESR1 promoters; parameters: method as in PMID 20547842; settings: SID peptide, longer time period; cited from earlier work
# [6] = target: T1, PAH2 domain of SIN3A (Mus musculus, UniProt Q60520); test: Fluorescence anisotropy competition assay, FITC-labeled Mad1 peptide probe; settings: 70 nM PAH2 domain, 10 nM probe, PBS pH 7.4, 0.01% BSA, 1 h, 25°C; read-out: IC50, competition for binding to FITC-labeled MAD probe
# T1 construct: The PAH2 domain of mSin3A was overexpressed in the E. coli BL21 (DE3) codon plus RIL strain; His tag (inferred from Ni2+ chelating column); made in house; host or cells: E. coli BL21 (DE3) codon plus RIL
# T1 sequence (Q60520 300-383 limits assumed): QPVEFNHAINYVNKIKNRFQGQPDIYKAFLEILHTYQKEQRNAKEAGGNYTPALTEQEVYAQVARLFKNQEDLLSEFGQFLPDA
# Method: The PAH2 domain of mSin3A was overexpressed in the E. coli BL21 (DE3) codon plus RIL strain (Stratagene) by addition of 1 mM isopropyl-1-thio-D-galactopyranoside and incubation overnight at 15°C. Harvested cells were re-suspended in 50 mM sodium phosphate buffer, pH 7.4, supplemented with 500 mM sodium chloride, 5% glycerol, and 0.1% Igepal CA-630 and lysed using a microfluidizer (Micro-fluidics) at 20,000 psi. After clarification of the crude extract by high-speed centrifugation, the lysate was loaded onto a 5 ml HiTrap chelating column (GE Healthcare) charged with Ni2+. The column was washed and the protein was eluted with 30 mM HEPES pH 7.4, 250 mM sodium chloride, and 250 mM imidazole. The protein was next purified on a Superdex75 column (GE Healthcare) equilibrated with 20 mM Tris-HCl buffer, pH 8.0, and 150 mM sodium chloride. Fractions containing the pure protein were combined and concentrated with 3 kDa MWCO centrifugal filters (Amicon).
# The binding affinity of pSID for SIN3A was assessed in a fluorescence anisotropy competition assay using a fluorescein isothiocyanate-labeled Mad1 peptide as an assay probe. […] Measurements were obtained after a 1 h incubation of the fluorescent ligand and the protein at 25°C with a Safire 2 microplate reader (Tecan). […]
compound,measurement,setting,value
YGRKKRRQGGG-EQRARRIMERLLEYNMVADL [Tat-Scr],"number of lung metastasis, median","[1]; 4T1 treated ex vivo with 2.5 μM, n = 5, Tat-SID p = 0.0446 versus Tat-Scr, vehicle 23",13
same,decrease in lung metastasis versus vehicle,"[1]; Tat-Scr 2.5 μM, p = 0.2107",not statistically significant
same,colony morphology,[2],disorganized colonies with invasive projections
same,"CD44low/CD24low/neg population, mean",[3],6.7%
same,"ALDH+ cells, mean",[4],21.3%
SID peptide: SID peptide expressed from a plasmid vector over a longer time period (previous study) (YGRKKRRQGGGVRMNIQMLLEAADYLERRER),H3K4me3 at CDH1 and ESR1 promoters,[5],dramatic increases in H3K4^me3
CC[C@H](C)[C@H](NC(=O)[C@H](CC(C)C)NC(=O)[C@H](CC(C)C)NC(=O)[C@H](CCC(=O)O)NC(=O)[C@H](Cc1ccccc1)NC(=O)[C@@H]1CCCN1C(=O)[C@H](CCCNC(=N)N)NC(=O)[C@H](CCCNC(=N)N)NC(=O)[C@H](CC(C)C)NC(=O)[C@H](CCC(N)=O)NC(=O)CNC(=O)CNC(=O)CNC(=O)[C@H](CCC(N)=O)NC(=O)[C@H](CCCNC(=N)N)NC(=O)[C@H](CCCNC(=N)N)NC(=O)[C@H](CCCCN)NC(=O)[C@H](CCCCN)NC(=O)[C@H](CCCNC(=N)N)NC(=O)CNC(=O)[C@@H](N)Cc1ccc(O)cc1)C(=O)N[C@@H](C)C(=O)N[C@@H](C)C(=O)N[C@@H](C)C(=O)N[C@@H](CCSC)C(=O)N[C@@H](CCC(=O)O)C(=O)N[C@@H](CCCNC(=N)N)C(=O)N[C@@H](CC(N)=O)C(=O)N1CCC[C@H]1C(=O)N[C@H](C(=O)N[C@@H](CCC(N)=O)C(=O)O)[C@@H](C)O [PF1-SID] (H-YGRKKRRQGGGQLRRPFELLIAAAMERNPTQ-OH),IC50,[6],15.6 µM
CC[C@H](C)[C@H](NC(=O)[C@H](CC(N)=O)NC(=O)[C@H](CCSC)NC(=O)[C@H](CCCNC(=N)N)NC(=O)[C@@H](NC(=O)CNC(=O)CNC(=O)CNC(=O)[C@H](CCC(N)=O)NC(=O)[C@H](CCCNC(=N)N)NC(=O)[C@H](CCCNC(=N)N)NC(=O)[C@H](CCCCN)NC(=O)[C@H](CCCCN)NC(=O)[C@H](CCCNC(=N)N)NC(=O)CNC(=O)[C@@H](N)Cc1ccc(O)cc1)C(C)C)C(=O)N[C@@H](CCC(N)=O)C(=O)N[C@@H](CCSC)C(=O)N[C@@H](CC(C)C)C(=O)N[C@@H](CC(C)C)C(=O)N[C@@H](CCC(=O)O)C(=O)N[C@@H](C)C(=O)N[C@@H](C)C(=O)N[C@@H](CC(=O)O)C(=O)N[C@@H](Cc1ccc(O)cc1)C(=O)N[C@@H](CC(C)C)C(=O)N[C@@H](CCC(=O)O)C(=O)N[C@@H](CCCNC(=N)N)C(=O)N[C@@H](CCCNC(=N)N)C(=O)N[C@@H](CCC(=O)O)C(=O)N[C@@H](CCCNC(=N)N)C(=O)O [Tat-SID] (H-YGRKKRRQGGGVRMNIQMLLEAADYLERRER-OH),IC50,[6],1.26 µM
